Test results: patent US20090233913A1, “OPTICAL ISOMERS OF DIHYDRO-2,3-BENZODIAZEPINES AND THEIR STEREOSELECTIVE SYNTHESIS” (priority 2005, published 2009)

Columns and labels:
AMPA receptor = test: Spreading depression (SD) test in the chicken retina, in vitro; format: cell-based; settings: antagonism of SD latency generated by 5 μM S-AMPA, isolated chicken retina, 30-minute incubation, room temperature; average ± deviation of the average
Procedure: The test was carried out according to method of Sheardown (1993).
Isolated eye-cups of 5-7 days old chickens (Shaver red-brow) were used. The sexes of the chickens were unidentified. Eyes of the animals were enucleated in narcosis caused by etherization, then the back sides of the eyes were cut and put in nutrient solution.
The composition of the medium is 100 mM NaCl, 3 mM KCl, 1 mM MgSO4, 1 mM CaCl2, 30 mM NaHCO3, 1 mM NaH2PO4 10 mM D-glukose, pH=7.3.
The spreading depression (SD) latency generated by 5 μM S-AMPA is determined at room temperature followed by a 90-minute stabilisation period. This value was considered as control value. Then the latency caused by AMPA was measured following a 30-minute incubation period in the presence of the test compound, then followed by further 60 minutes washing the recursion of the latency time to the control value was checked.
The elongation of the control latency with 30 sec corresponds to 100% antagonism. • Literature: Sheardown, M. J.: The triggering of spreading depression in the chicken retina: a pharmacological study. Brain Research 1993, 607: 189-194.

female Wistar rats = test: Toxicity test in rats: histological atrophy of thymus and bone-marrow after seven-day p.o. treatment; format: in vivo, rat; settings: for thymus cortex atrophy (scores): female Wistar rats, 30 mg/kg p.o. once daily for seven days, score 0 (no change) to 4 (severe), average ± deviation of the average; for bone-marrow atrophy (scores): female, Wistar, po, 30 mg/kg, 7 days; for bone-marrow atrophy (scores) / effect on the hystological pictures of the thymus and bone-marrow (in words): rat, in vivo
Procedure: The examination was carried out using female Wistar rats. One day before the treatment the animals were assigned to randomised groups based on their weight (10 animals/group). Each active ingredient was suspended in a solution of 0.4% hydroxypropylmethylcellulose (Methocell F4 M, Dow Chemical Company, USA) and administered once daily for seven days by gastric-canule. The daily doses were 30 mg/kg, the animals of the control group were treated with the solvent. At the end of the experiments the animals were sacrificed by incising of the arteries of thigh in narcosis caused by ether.
After the thymus-ectomy thymi were fixed in a solution of formaline buffered with phosphate, then embedded in paraffin, pigmented with hemalaun-eosin.
Bone-marrow film preparations were made from the femur of the animals and pigmented according to Grimsa method (Sheenan D. C.-Hrapchak B. B.: Theory and practice of histotechnology (2nd ed.) Mosby Company, St. Louis, USA 1980).
The histological athrophy was scored as follows: 0—there is no change, 1—change appears, 2—slight change, 3—middle severe change, marked change, 4—severe, obvious, wide change. The rating was accomplished blind without any information about the treatment.
Groups were compared by KRUSKAL WALLIS ANOVA test (Ranks and Median). In case of significant deviation (p<0.05) WALD-WOLFOWITZ test was used for comparison.

male Wistar rats = test: Measurement of plasma corticosterone concentration in the rat (radio-immunoassay); format: in vivo; settings: treatment per os, 15 mg/kg
Procedure: Examinations were carried out by using male wistar rats weighing 250-300 g. The animals were kept in an air-conditioned room, 12 hours artificial daylight was followed by 12 hours darkness. For four days prior to the experiments the animals got 0.5 ml water daily by a gastric-canule. The weight of the animals was measured at the evening before the experiments, then the animals were placed in separate cages.
Experiments were accomplished in the morning between 9 and 12 hours.
Before the treatment the animals were randomized to groups (7 animals/group)
The tested compounds were administered in a 15 mg/body weight kg dose, in 5 ml/kg solvent volume, using gastric-canule. The control animals were treated with solvent. The solvent composition contained 0.2 ml of 2.5 M HCl and 19.8 ml of distilled water.
After one hour of the treatment the animals were decapitated and about 2 ml of blood were collected in an ice-cold test tube containing 100 μl of 2% (WN) K-EDTA.
For the determination of corticosterone concentration, a corticosterone-3-CMO-BSA anti-body prepared in rabbit was used in a dilution of 1:40000. The antibody cross-reaction with desoxycorticosteron was 1.5%; with progesterone it was 2.3%. […]
The corticosterone concentration was measured from 10 μl plasma without extraction. […] The radioactivity was measured with LKB Clinigamma apparatus. […]

| SMILES | EC50 (AMPA receptor) | thymus cortex atrophy (scores) (female Wistar rats) | bone-marrow atrophy (scores) (female Wistar rats) | effect on the hystological pictures of the thymus and bone-marrow (in words) (female Wistar rats) | effect on the plasma corticosterone concentration (in words) (male Wistar rats) |
| --- | --- | --- | --- | --- | --- |
| CC(=O)N1N=C(c2ccc(N)c(C)c2)c2cc3c(cc2C[C@H]1C)OCO3 [Example 4, (R)-(−)-7-acetyl-5-(4-amino-3-methylphenyl)-8-methyl-8,9-dihydro-7H-1,3-dioxolo[4,5-h][2,3] benzodiazepine] | 1800 ± 100 nM | 0.30 ± 0.21 scores | 0.40 ± 0.27 scores | only in a minimal degree |  |
| CC(=O)N1N=C(c2ccc(N)c(C)c2)c2cc3c(cc2C[C@@H]1C)OCO3 [Example 6, (S)-(+)-7-Acetyl-5-(4-amino-3-methylphenyl)-8-methyl-8,9-dihydro-7H-1,3-dioxolo[4,5-h][2,3] benzodiazepine] |  | 2.9 ± 0.43 scores | 2.1 ± 0.31 scores | caused significant hystological atrophy in the thymus and the bone-marrow |  |
| CC(=O)N1N=C(c2ccc(N)c(C)c2)c2cc(Cl)ccc2C[C@H]1C [Example 15, (R)-(−)-3-acetyl-1-(4-amino-3-methylphenyl)-8-chloro-4-methyl-4,5-dihydro-3H-2,3-benzodiazepine] | 3900 ± 200 nM |  |  |  | did not affect the plasma corticosterone concentration |
| CC(=O)N1N=C(c2ccc(N)c(C)c2)c2cc(Cl)ccc2C[C@@H]1C [Example 16, (S)-(+)-3-acetyl-1-(4-amino-3-methylphenyl)-8-chloro-4-methyl-4,5-dihydro-3H-2,3-benzodiazepine] |  |  |  |  | elevated the plasma corticosterone concentration |
